Data: ChEMBL document CHEMBL3045388, “Sensitivity of Podosphaera aphanis isolates to DMI fungicides: distribution and reduced cross-sensitivity” (Pest Manag Sci, 2010)
In brackets after ≈: the same amount, converted by molar mass.

Assays:
Type in all cases: functional, organism-based
[1] = test system: Podosphaera aphanis; test: Antifungal activity against Podosphaera aphanis isolate BRE in Darselect leaf disks after 8 days; conditions: 192 h
[2] = test system: Podosphaera aphanis; test: Antifungal activity against Podosphaera aphanis isolate BRA in Darselect leaf disks after 8 days; conditions: 192 h
[3] = test system: Podosphaera aphanis; test: Antifungal activity against Podosphaera aphanis isolate ART in Darselect leaf disks after 8 days; conditions: 192 h
[4] = test system: Podosphaera aphanis; test: Antifungal activity against Podosphaera aphanis isolate AVI in Darselect leaf disks after 8 days; conditions: 192 h
[5] = test system: Podosphaera aphanis; test: Antifungal activity against Podosphaera aphanis isolate ABA in Darselect leaf disks after 8 days; conditions: 192 h
[6] = test system: Podosphaera aphanis; test: Antifungal activity against Podosphaera aphanis isolate VIR in Darselect leaf disks after 8 days; conditions: 192 h
[7] = test system: Podosphaera aphanis; test: Antifungal activity against Podosphaera aphanis isolate SOU in Darselect leaf disks after 8 days; conditions: 192 h
[8] = test system: Podosphaera aphanis; test: Antifungal activity against Podosphaera aphanis isolate SOD in Darselect leaf disks after 8 days; conditions: 192 h
[9] = test system: Podosphaera aphanis; test: Antifungal activity against Podosphaera aphanis isolate SOC in Darselect leaf disks after 8 days; conditions: 192 h
[10] = test system: Podosphaera aphanis; test: Antifungal activity against Podosphaera aphanis isolate SIL in Darselect leaf disks after 8 days; conditions: 192 h
[11] = test system: Podosphaera aphanis; test: Antifungal activity against Podosphaera aphanis isolate SAG in Darselect leaf disks after 8 days; conditions: 192 h
[12] = test system: Podosphaera aphanis; test: Antifungal activity against Podosphaera aphanis isolate PES in Darselect leaf disks after 8 days; conditions: 192 h
[13] = test system: Podosphaera aphanis; test: Antifungal activity against Podosphaera aphanis isolate PAJ in Darselect leaf disks after 8 days; conditions: 192 h
[14] = test system: Podosphaera aphanis; test: Antifungal activity against Podosphaera aphanis isolate MEP in Darselect leaf disks after 8 days; conditions: 192 h
[15] = test system: Podosphaera aphanis; test: Antifungal activity against Podosphaera aphanis isolate MEG in Darselect leaf disks after 8 days; conditions: 192 h
[16] = test system: Podosphaera aphanis; test: Antifungal activity against Podosphaera aphanis isolate MAR in Darselect leaf disks after 8 days; conditions: 192 h
[17] = test system: Podosphaera aphanis; test: Antifungal activity against Podosphaera aphanis isolate LI1 in Darselect leaf disks after 8 days; conditions: isolate LI1, 192 h
[18] = test system: Podosphaera aphanis; test: Antifungal activity against Podosphaera aphanis isolate LBP in Darselect leaf disks after 8 days; conditions: 192 h
[19] = test system: Podosphaera aphanis; test: Antifungal activity against Podosphaera aphanis isolate HOR in Darselect leaf disks after 8 days; conditions: 192 h
[20] = test system: Podosphaera aphanis; test: Antifungal activity against Podosphaera aphanis isolate GUI in Darselect leaf disks after 8 days; conditions: 192 h
[21] = test system: Podosphaera aphanis; test: Antifungal activity against Podosphaera aphanis isolate DOU in Darselect leaf disks after 8 days; conditions: 192 h
[22] = test system: Podosphaera aphanis; test: Antifungal activity against Podosphaera aphanis isolate DAR18 in Darselect leaf disks after 8 days; conditions: isolate DAR18, 192 h
[23] = test system: Podosphaera aphanis; test: Antifungal activity against Podosphaera aphanis isolate DAR1 in Darselect leaf disks after 8 days; conditions: isolate DAR1, 192 h
[24] = test system: Podosphaera aphanis; test: Antifungal activity against Podosphaera aphanis isolate CAM in Darselect leaf disks after 8 days; conditions: 192 h

With `CCCCC(C#N)(Cn1cncn1)c1ccc(Cl)cc1` (centres undefined) [MYCLOBUTANIL] as the molecule, how does the EC50 [1] read?
Its EC50 is 5.3 µg/mL (≈ 18.4 µM).

And the MIC [1]?
Its MIC is 13.7 µg/mL (≈ 47.4 µM).

What about the EC50 [2] of the same molecule?
The EC50 was 1.3 µg/mL (≈ 4.5 µM).

And the MIC [2]?
Its MIC is 3 µg/mL (≈ 10.4 µM).

What about the EC50 [3] of the same molecule?
Its EC50 is 3.9 µg/mL (≈ 13.5 µM).

What about the MIC [3] of the same molecule?
The MIC was 10.7 µg/mL (≈ 37.1 µM).

What about the EC50 [4] of the same molecule?
Its EC50 is 0.5 µg/mL (≈ 1.73 µM).

What about the MIC [4] of the same molecule?
The MIC was 2 µg/mL (≈ 6.93 µM).

What about the EC50 [5] of the same molecule?
Its EC50 is 3.75 µg/mL (≈ 13 µM).

And the MIC [5]?
The MIC was 9 µg/mL (≈ 31.2 µM).

And the EC50 [6]?
Its EC50 is 1.8 µg/mL (≈ 6.23 µM).

And the MIC [6]?
The MIC was 5 µg/mL (≈ 17.3 µM).

And the EC50 [7]?
The EC50 was 10 µg/mL (≈ 34.6 µM).

What about the MIC [7] of the same molecule?
Its MIC is 23 µg/mL (≈ 79.6 µM).

And the EC50 [8]?
The EC50 was 13.1 µg/mL (≈ 45.4 µM).

And the MIC [8]?
The MIC was 21.5 µg/mL (≈ 74.5 µM).

And the EC50 [9]?
Its EC50 is 6.45 µg/mL (≈ 22.3 µM).

And the MIC [9]?
Its MIC is 26 µg/mL (≈ 90 µM).

What about the EC50 [10] of the same molecule?
Its EC50 is 2 µg/mL (≈ 6.93 µM).

And the MIC [10]?
The MIC was 6.5 µg/mL (≈ 22.5 µM).

What about the EC50 [11] of the same molecule?
Its EC50 is 1.7 µg/mL (≈ 5.89 µM).

What about the MIC [11] of the same molecule?
The MIC was 5.33 µg/mL (≈ 18.5 µM).

And the EC50 [12]?
Its EC50 is less than 0.1 µg/mL.

And the MIC [12]?
The MIC was less than 0.1 µg/mL.

And the EC50 [13]?
The EC50 was 3 µg/mL (≈ 10.4 µM).

What about the MIC [13] of the same molecule?
Its MIC is 6.9 µg/mL (≈ 23.9 µM).

What about the EC50 [14] of the same molecule?
Its EC50 is 0.8 µg/mL (≈ 2.77 µM).

And the MIC [14]?
Its MIC is 3 µg/mL (≈ 10.4 µM).

And the EC50 [15]?
The EC50 was 1 µg/mL (≈ 3.46 µM).

And the MIC [15]?
The MIC was 2.35 µg/mL (≈ 8.14 µM).

And the EC50 [16]?
Its EC50 is 5.5 µg/mL (≈ 19 µM).

What about the MIC [16] of the same molecule?
The MIC was 16 µg/mL (≈ 55.4 µM).

And the EC50 [17]?
Its EC50 is 3.6 µg/mL (≈ 12.5 µM).

And the MIC [17]?
The MIC was 8.5 µg/mL (≈ 29.4 µM).

What about the EC50 [18] of the same molecule?
Its EC50 is 4.8 µg/mL (≈ 16.6 µM).

And the MIC [18]?
Its MIC is 12.5 µg/mL (≈ 43.3 µM).

What about the EC50 [19] of the same molecule?
The EC50 was 4.25 µg/mL (≈ 14.7 µM).

And the MIC [19]?
Its MIC is 10.8 µg/mL (≈ 37.2 µM).

And the EC50 [20]?
Its EC50 is 1.15 µg/mL (≈ 3.98 µM).

And the MIC [20]?
The MIC was 2.35 µg/mL (≈ 8.14 µM).

And the EC50 [21]?
The EC50 was 8.9 µg/mL (≈ 30.8 µM).

And the MIC [21]?
The MIC was 15.5 µg/mL (≈ 53.7 µM).

What about the EC50 [22] of the same molecule?
The EC50 was 14.7 µg/mL (≈ 50.8 µM).

And the MIC [22]?
Its MIC is 31 µg/mL (≈ 107 µM).

And the EC50 [23]?
Its EC50 is 4.75 µg/mL (≈ 16.4 µM).

What about the MIC [23] of the same molecule?
The MIC was 15 µg/mL (≈ 51.9 µM).

What about the EC50 [24] of the same molecule?
The EC50 was 2.6 µg/mL (≈ 9 µM).

And the MIC [24]?
Its MIC is 5.5 µg/mL (≈ 19 µM).

For `CCCC(Cn1cncn1)c1ccc(Cl)cc1Cl` (centres undefined) [PENCONAZOLE], which EC50 [1] is on record?
Its EC50 is 1.9 µg/mL (≈ 6.69 µM).

And the MIC [1]?
The MIC was 6 µg/mL (≈ 21.1 µM).

And the EC50 [2]?
Its EC50 is 1.48 µg/mL (≈ 5.21 µM).

And the MIC [2]?
Its MIC is 2.6 µg/mL (≈ 9.15 µM).

What about the EC50 [3] of the same molecule?
The EC50 was 2.2 µg/mL (≈ 7.74 µM).

And the MIC [3]?
The MIC was 6.6 µg/mL (≈ 23.2 µM).

And the EC50 [4]?
Its EC50 is 0.58 µg/mL (≈ 2.04 µM).

And the MIC [4]?
Its MIC is 1.8 µg/mL (≈ 6.33 µM).

And the EC50 [5]?
The EC50 was 1.25 µg/mL (≈ 4.4 µM).

And the MIC [5]?
Its MIC is 2.85 µg/mL (≈ 10 µM).

What about the EC50 [6] of the same molecule?
Its EC50 is 2 µg/mL (≈ 7.04 µM).

And the MIC [6]?
Its MIC is 5 µg/mL (≈ 17.6 µM).

And the EC50 [7]?
Its EC50 is 2.1 µg/mL (≈ 7.39 µM).

What about the MIC [7] of the same molecule?
Its MIC is 9.8 µg/mL (≈ 34.5 µM).

What about the EC50 [9] of the same molecule?
The EC50 was 3.2 µg/mL (≈ 11.3 µM).

What about the MIC [9] of the same molecule?
The MIC was 7.9 µg/mL (≈ 27.8 µM).

And the EC50 [10]?
Its EC50 is 0.4 µg/mL (≈ 1.41 µM).

And the MIC [10]?
Its MIC is 1 µg/mL (≈ 3.52 µM).

And the EC50 [11]?
Its EC50 is 0.28 µg/mL (≈ 0.985 µM).

What about the MIC [11] of the same molecule?
The MIC was 0.5 µg/mL (≈ 1.76 µM).

What about the EC50 [12] of the same molecule?
Its EC50 is 0.04 µg/mL (≈ 0.141 µM).

And the MIC [12]?
Its MIC is 0.15 µg/mL (≈ 0.528 µM).

What about the EC50 [13] of the same molecule?
The EC50 was 2.9 µg/mL (≈ 10.2 µM).

And the MIC [13]?
Its MIC is 3.9 µg/mL (≈ 13.7 µM).

And the EC50 [14]?
Its EC50 is 0.3 µg/mL (≈ 1.06 µM).

What about the MIC [14] of the same molecule?
Its MIC is 0.8 µg/mL (≈ 2.82 µM).

What about the EC50 [15] of the same molecule?
Its EC50 is 0.43 µg/mL (≈ 1.51 µM).

And the MIC [15]?
Its MIC is 1 µg/mL (≈ 3.52 µM).

What about the EC50 [16] of the same molecule?
Its EC50 is 2.55 µg/mL (≈ 8.97 µM).

What about the MIC [16] of the same molecule?
Its MIC is 10 µg/mL (≈ 35.2 µM).

What about the EC50 [17] of the same molecule?
The EC50 was 2.45 µg/mL (≈ 8.62 µM).

And the MIC [17]?
Its MIC is 5.15 µg/mL (≈ 18.1 µM).

What about the EC50 [18] of the same molecule?
Its EC50 is 4.2 µg/mL (≈ 14.8 µM).

What about the MIC [18] of the same molecule?
Its MIC is 9.5 µg/mL (≈ 33.4 µM).

And the EC50 [19]?
Its EC50 is 0.8 µg/mL (≈ 2.82 µM).

And the MIC [19]?
Its MIC is 2 µg/mL (≈ 7.04 µM).

What about the EC50 [20] of the same molecule?
The EC50 was 0.9 µg/mL (≈ 3.17 µM).

What about the MIC [20] of the same molecule?
The MIC was 2.1 µg/mL (≈ 7.39 µM).

And the EC50 [21]?
Its EC50 is 1.3 µg/mL (≈ 4.57 µM).

And the MIC [21]?
The MIC was 2 µg/mL (≈ 7.04 µM).

And the EC50 [22]?
The EC50 was 3.5 µg/mL (≈ 12.3 µM).

And the MIC [22]?
Its MIC is 9 µg/mL (≈ 31.7 µM).

And the EC50 [23]?
Its EC50 is 2 µg/mL (≈ 7.04 µM).

And the MIC [23]?
The MIC was 3 µg/mL (≈ 10.6 µM).

And the EC50 [24]?
The EC50 was 0.9 µg/mL (≈ 3.17 µM).

And the MIC [24]?
The MIC was 2.5 µg/mL (≈ 8.8 µM).
